The results in this text go back to PubChem BioAssay AID977622 (Broad Institute, 2014).

In general, AC50 refers to the concentration at which the activity in the assay is half-maximal.

Assay [1] relates to E. coli WT ribosome GFP fluorescence, mixed culture, 24 h. Kind of assay: growth inhibition of wild-type GFP E. coli, dose response, h38 mutant RFP, cherry-pick (AID 977622).
The subject of assay [2] is E. coli h38 humanized mutant ribosome RFP fluorescence, mixed culture, 24 h. The description is as above. The conditions noted are these: measured here: h38 humanized mutant RFP strain.
The mark [3] stands for this setting: E. coli mixed culture, 24 h, measured here: total growth OD600.

SMILES strings stand for the structures. Results filed as inconclusive are left out. The source made the active and inactive calls.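 The calls were made as follows: active = Green signal of the normal strain falls at least twice as much as red signal of the resistant mutant, with overall culture growth loss under a set limit; inconclusive = no clear call, values can overlap the other calls; inactive = the rest.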

`CN(C)c1ccc(-c2nnn(Cc3ccccc3Br)n2)cc1`: the AC50 in assay [1] was > 100 µM (inactive); in assay [2] it was above 100 µM.

In the case of `COc1ccc(NC(=O)Nc2cccc3c2O[C@@H](CN(C)S(=O)(=O)c2ccc(Cl)cc2)[C@H](C)CN([C@H](C)CO)C3=O)cc1`, the values for the AC50 in assay [1] and in assay [2] were > 100 µM (inactive) and above 100 µM, respectively. For `N#Cc1cccc(-c2ccc3c(c2)[C@@H]2[C@@H](CCN2S(=O)(=O)c2cccc(F)c2)[C@H](CO)N3)c1` the same measures were > 100 µM (inactive) and above 100 µM. For `COc1cccc(NC(=O)C2CCC(CNS(=O)(=O)c3cccs3)CC2)c1` (centres undefined) the same measures were > 100 µM (inactive) and above 100 µM. For `COc1ccc(CN2C(=O)NC(C)(c3ccc(C)cc3)C2=O)cc1F` (centres undefined) the same measures were > 100 µM (inactive) and above 100 µM.

As to `O=S1(=O)N[C@H](Cc2ccccc2)COc2cccc(N3CCC[C@H]3CO)c21`, the AC50 in assay [1] is > 100 µM (inactive); in assay [2], above 100 µM. With `O=C(c1cccs1)c1c[nH]cc1-c1ccccc1`, the AC50 in assay [1] (setting [3]) and in assay [2] was above 100 µM each time. For the compound `CN1C(=O)c2cc(NC(=O)c3cccc(F)c3)ccc2OC[C@H]2O[C@@H](CC(=O)NCC3CCCCC3)CC[C@@H]21`, the AC50 in assay [2] is above 100 µM.

As for `O=C(NCc1ccccc1)C1C(=O)Nc2ccccc2C(=O)N1c1ccc2c(c1)OCCO2` (centres undefined), the AC50 was > 100 µM (inactive) in assay [1] and above 100 µM in assay [2]. `O=C(c1cccc2ccccc12)C1CCCN(C(=O)CCc2cnccn2)C1` (centres undefined): the AC50 in assay [1] (setting [3]) and in assay [2] was above 100 µM throughout.

In the case of `O=C1OC[C@@H]2CCCN2C(=O)[C@@H](CC(=O)N(CCO)Cc2ccccc2)C/C=C\C[C@H]1Cc1ccc(F)cc1`, the AC50 in assay [1] (setting [3]) and in assay [2] was above 100 µM each time.

In the case of `O=S(=O)(Nc1ccc(-c2cnco2)cc1)c1ccccc1`, the AC50 in assay [1] was > 100 µM (inactive); in assay [2], above 100 µM.

In assay [2], `Cc1ccccc1S(=O)(=O)N1C[C@H]2CON(C)[C@H]2C[C@H]1c1cccc(-c2ccc(C#N)cc2)c1` came in with an AC50 above 100 µM. For the compound `COc1cccc(-c2ccc(NC(=O)C3CCCN(Cc4cnn(C(C)C)c4)C3)cc2)c1` (centres undefined), the AC50 in assay [2] was above 100 µM. With `Cc1ccc(C(=O)Nc2cccc3[nH]c(C(F)(F)F)nc23)cc1`, the AC50 in assay [1] (setting [3]) and in assay [2] was above 100 µM throughout. In turn, `Cc1cc(SCC(=O)c2cccs2)n2nc(C)c(-c3ccc(Cl)cc3)c2n1` gave an AC50 in assay [2] above 100 µM. On the same count and under the same terms, then `CC(C)=C(c1ccc(Cl)cc1)c1c(N)ncnc1N`, with above 100 µM. The same measure, in the same setting: then `CN(C)CCCN(C(=O)CCOc1ccccc1)c1nc2c(F)cccc2s1`, with above 100 µM. Take `Cc1ccccc1CSCC(=O)Nc1ccccc1F`: the AC50 in assay [2] was above 100 µM. The same measure, in the same setting: then `C[C@H]1CN([C@@H](C)CO)C(=O)c2c(c3ccccc3n2C)-c2ccccc2CO[C@@H]1CN(C)Cc1ccncc1`, with above 100 µM; and `O=C(Nc1ccc(C(=O)c2ccccc2)cc1)c1ccccc1`, with above 100 µM. The same measure, in the same setting: with `O=S(=O)(NOCc1ccc(Cl)cc1)c1ccc(Cl)cc1` the figure was 52 µM. Regarding `NS(=O)(=O)c1cccc(NC(=O)COc2ncnc3c2cnn3-c2ccccc2)c1`, the AC50 in assay [1] was > 100 µM (inactive). Still for that read-out and setting: with `CCSc1nc2ccccc2c(=O)n1Cc1ccc(F)cc1` the figure was > 100 µM (inactive); with `O=C(C[n+]1cc(-c2ccc(Cl)c(Cl)c2)n2c1CCC2)OCc1ccccc1`, > 100 µM (inactive). Regarding `Clc1ccc(-c2cn(-c3ccccc3)c3[n+]2CCS3)cc1`, the AC50 in assay [1] was > 100 µM (inactive). On to `Cc1ccc(C(=O)Nc2ccc(C)c(S(=O)(=O)Nc3ccccc3Cl)c2)s1`, for which the AC50 in assay [1] is > 100 µM (inactive); in assay [1] (setting [3]), 43.1 µM. `COc1cccc(S(=O)(=O)N2CCCCN3[C@H](C2)[C@H](c2ccc(C#CC(C)C)cc2)[C@@H]3CO)c1`: the AC50 in assay [1] is > 100 µM (inactive). `O=S(=O)(c1ccccc1)N1C[C@H]2[C@@H](c3ccccc31)[C@@H](CO)N2Cc1ccccc1`: the AC50 in assay [1] was > 100 µM (inactive).

On to `COc1cccc(NC(=O)N(C)C[C@H]2Oc3ncc(C#Cc4cccnc4)cc3C(=O)N([C@H](C)CO)C[C@H]2C)c1`, for which the concentration at half-maximal activity (AC50) in assay [1] (setting [3]) was above 100 µM. Take `Cc1ccc(N(CC(O)Cn2nc(C)cc2C)S(=O)(=O)c2ccc3ccccc3c2)cc1` (centres undefined): the AC50 in assay [1] is > 100 µM (inactive); in assay [1] (setting [3]), 43.1 µM. For `CC(CCC(=O)O)C1CC[C@@]2(C)C3C(=O)CC4C(C)(C)C(O)CC[C@]4(C)C3C(=O)C[C@]12C` (some centres undefined) the same measures were > 100 µM (inactive) and above 100 µM.

`O=C(c1cc2cc(F)ccc2[nH]1)N1CCN(Cc2ccc3c(c2)OCO3)CC1`: the figures for the AC50 in assay [1] and in assay [1] (setting [3]) were > 100 µM (inactive) and 20.8 µM, respectively. For `O=C1c2ccccc2C(=O)N1CCc1c[nH]c2ccccc12` the same measures were > 100 µM (inactive) and above 100 µM.

For the compound `C[C@]12C(=O)N(c3ccc(F)cc3)C(=O)N1[C@@H]1c3ccccc3OC[C@@H]1[C@H]2c1ccccc1`, in assay [1] (setting [3]), the AC50 is above 100 µM.

Take `S=C1SCN(Cc2cccnc2)CN1Cc1ccccc1`: the AC50 in assay [1] was > 100 µM (inactive). Still for that read-out and setting: with `COCc1c(C#N)c(NCCc2ccc(F)cc2)nc(C)c1[N+](=O)[O-]` the figure was > 100 µM (inactive).

Take `O=C1c2cccc3cccc(c23)C(=O)N1CCCn1ccnc1`: the AC50 was > 100 µM (inactive) in assay [1] and 51.6 µM in assay [1] (setting [3]). Turning to `Cc1ccccc1S(=O)(=O)NC(=O)C1(C)CCN1C(=O)C1(c2ccc(Cl)cc2)CC1` (centres undefined), the AC50 in assay [1] was > 100 µM (inactive). As for `O=C(NCc1ccc(-c2nc3ccccc3s2)cc1)c1ccco1`, the AC50 was > 100 µM (inactive) in assay [1] and 3 µM in assay [1] (setting [3]).

In the case of `c1cc2cc(-c3c(-c4ccc5c(c4)OCO5)noc3-c3ccsc3)ccc2[nH]1`, in assay [1], the AC50 was > 100 µM (inactive). With `COc1cccc(-n2nnnc2SCC(=O)NCc2ccc3c(c2)OCO3)c1`, in assay [1], the AC50 is > 100 µM (inactive). For `CC(C)(C)C1CCC(OCC(O)CN2CCN(c3ccccn3)CC2)CC1` (centres undefined), the AC50 is > 100 µM (inactive) in assay [1] and 44.7 µM in assay [1] (setting [3]). Take `C[C@H]1CN([C@@H](C)CO)C(=O)CCCn2nncc2CO[C@@H]1CN(C)Cc1ccccc1C(F)(F)F`: the AC50 in assay [1] (setting [3]) was above 100 µM. Consider `O=C(CN(CCO)c1ccccc1)Nc1cccc(S(=O)(=O)N2CCCC2)c1`, for which the AC50 in assay [1] was > 100 µM (inactive). `CC(=O)Nc1cccc(OCc2ccc([N+](=O)[O-])cc2)c1` displayed an AC50 in assay [2] above 100 µM. On to `Nc1[nH]c(C(=O)c2ccccc2)c(-c2ccc(Cl)cc2)c1C(=O)NCCc1c[nH]c2ccccc12`, for which the AC50 in assay [1] (setting [3]) was above 100 µM. In assay [2], `CCOc1ccc(C(C)=O)cc1CN1C(=O)NC2(CCCCCCC2)C1=O` registered an AC50 above 100 µM.

`CCN(CC)CCN(C(=O)c1ccccc1OC)c1nc2ccc(F)cc2s1`: the AC50 in assay [1] was > 100 µM (inactive); in assay [1] (setting [3]), above 100 µM.

For `Cc1ccc(NC(=O)c2ccc([N+](=O)[O-])o2)c(C)c1`, the AC50 in assay [1] was > 100 µM (inactive). Turning to `Cc1ccc(-n2cc(CNCCN3CCOC3=O)c(-c3ccc(F)cc3)n2)cc1`, the AC50 in assay [1] (setting [3]) was above 100 µM. The same measure, in the same setting: with `CC(=O)Nc1cccc(OCCCOc2cccc([N+](=O)[O-])c2)c1` the figure was above 100 µM. Consider `CC(=O)Nc1cccc2c1Cc1cc([N+](=O)[O-])ccc1-2`, for which the AC50 in assay [1] is > 100 µM (inactive).
